Publication PMC9120017, “Inhibition mechanism of the chloride channel TMEM16A by the pore blocker 1PBC” (Nature Communications, 2022)
Where two headings read alike, the source gives them in different places.

Target: T1, mouse TMEM16A mutant S517A (Mus musculus, UniProt Q8BHY3, S517A)
T1 construct: expressed in transfected cells; host or cells: HEK293T
T1 sequence (Q8BHY3 1-960 S517A): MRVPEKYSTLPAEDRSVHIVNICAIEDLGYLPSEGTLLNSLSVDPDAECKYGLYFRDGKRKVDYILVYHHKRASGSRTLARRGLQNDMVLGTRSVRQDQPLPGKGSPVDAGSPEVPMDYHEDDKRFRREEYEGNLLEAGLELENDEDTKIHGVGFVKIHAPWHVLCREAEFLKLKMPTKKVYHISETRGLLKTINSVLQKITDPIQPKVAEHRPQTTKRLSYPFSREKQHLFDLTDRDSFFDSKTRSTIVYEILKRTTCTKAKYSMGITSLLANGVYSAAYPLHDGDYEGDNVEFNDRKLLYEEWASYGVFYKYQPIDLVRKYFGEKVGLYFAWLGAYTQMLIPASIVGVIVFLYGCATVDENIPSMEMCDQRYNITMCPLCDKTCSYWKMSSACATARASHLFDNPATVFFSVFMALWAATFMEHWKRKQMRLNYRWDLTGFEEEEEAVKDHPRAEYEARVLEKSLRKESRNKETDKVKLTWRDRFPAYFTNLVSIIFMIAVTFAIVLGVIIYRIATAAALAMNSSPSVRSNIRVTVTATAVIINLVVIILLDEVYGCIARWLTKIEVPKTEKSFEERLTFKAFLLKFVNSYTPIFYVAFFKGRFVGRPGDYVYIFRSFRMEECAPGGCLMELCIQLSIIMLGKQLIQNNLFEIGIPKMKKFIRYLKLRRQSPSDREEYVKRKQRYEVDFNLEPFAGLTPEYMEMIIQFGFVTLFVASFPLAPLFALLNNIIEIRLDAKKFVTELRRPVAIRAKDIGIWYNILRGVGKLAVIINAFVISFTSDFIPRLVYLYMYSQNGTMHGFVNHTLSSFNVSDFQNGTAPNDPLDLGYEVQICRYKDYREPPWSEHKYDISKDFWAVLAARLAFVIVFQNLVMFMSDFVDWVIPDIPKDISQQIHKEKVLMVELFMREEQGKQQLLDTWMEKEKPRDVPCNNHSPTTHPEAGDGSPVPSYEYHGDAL
Experiment: Inside-out patch recording of 1PBC block, mutant S517A
Type: cell-based
Settings: for remaining activity at 1 µM: 1PBC 1; for remaining activity at 1 µM / remaining activity at 3 µM / remaining activity at 10 µM / remaining activity at 30 µM / remaining activity at 100 µM: read-out: fraction of unblocked current; for remaining activity at 3 µM: 1PBC 3; for remaining activity at 10 µM: 1PBC 10; for remaining activity at 30 µM: 1PBC 30; for remaining activity at 100 µM: 1PBC 100
Procedure: HEK293T cells (ATCC CRL-1573) were maintained in Dulbecco’s modified Eagle’s medium (DMEM; Sigma-Aldrich) supplemented with 10 U ml^−1 penicillin, 0.1 mg ml^−1 streptomycin (Sigma-Aldrich), 2 mM L-glutamine (Sigma-Aldrich), and 10% FBS (Sigma-Aldrich) in a humidified atmosphere containing 5% CO2 at 37 °C. HEK293S GnTI^− cells (ATCC CRL-3022) were maintained in HyClone HyCell TransFx-H medium (GE Healthcare) supplemented with 10 U ml^−1 penicillin, 0.1 mg ml^−1 streptomycin, 4 mM L-glutamine, 0.15% poloxamer 188 (Sigma-Aldrich), and 1% FBS in an atmosphere containing 5% CO2 at 185 rpm at 37 °C. The ac splice variant of mouse TMEM16A (UniProt ID: Q8BHY3), mouse TMEM16B (UniProt ID: Q8CFW1), or mouse TMEM16F (UniProt ID: Q6P9J9) bearing a 3C cleavage site, a Venus YFP, a Myc tag, and a Streptavidin-binding peptide (SBP) downstream of the open reading frame in a modified pcDNA3.1 vector (Invitrogen) were used as described previously[21],[31]. Mutations were introduced using a modified QuikChange method[58] and were verified by sequencing.
HEK293T cells were transfected with 3–4 μg DNA per 6 cm Petri dish using the calcium phosphate co-precipitation method and were used within 24–96 h after transfection. Recordings were performed on inside-out patches excised from HEK293T cells expressing the construct of interest. Patch pipettes were pulled from borosilicate glass capillaries (O.D. 1.5 mm, I.D. 0.86 mm, Sutter Instrument) and were fire-polished with a microforge (Narishige) before use. Pipette resistance was typically 3–8 MΩ when filled with the recording solutions detailed below. Seal resistance was typically 4 GΩ or higher. Voltage-clamp recordings were made using Axopatch 200B, Digidata 1550, and Clampex 10.7 (Molecular Devices). Analog signals were filtered with the in-built 4-pole Bessel filter at 10 kHz and were digitized at 20 kHz. Solution exchange was achieved using a gravity-fed system through a theta glass pipette mounted on an ultra-fast piezo-driven stepper (Siskiyou). […] All recordings were performed at 20 °C.
A symmetrical ionic condition was used throughout. Stock solution with Ca^2+-EGTA contained 150 mM NaCl, 5.99 mM Ca(OH)2, 5 mM EGTA, and 10 mM HEPES at pH 7.40. Stock solution with EGTA contained 150 mM NaCl, 5 mM EGTA, and 10 mM HEPES at pH 7.40. Free Ca^2+ concentrations were adjusted by mixing the stock solutions at the required ratios calculated using the WEBMAXC program (http://web.stanford.edu/~cpatton/webmaxcS.htm). Patch pipettes were filled with the stock solution with Ca^2+-EGTA, which has a free Ca^2+ concentration of 1 mM. 1PBC (ChemBridge) stock was reconstituted in anhydrous DMSO (Sigma-Aldrich) at 100 mM and stored at −20 °C. Working solutions with 1PBC were prepared by serial dilution. Unless otherwise stated, experiments were performed at a saturating Ca^2+ concentration as shown in Supplementary Table 1 and the primary data were corrected for current rundown as described previously[21],[25].
Concentration-response relations, obtained from the ratio of the I-V plots before and after the application of the blocker, were fitted to the Hill equation,1 I/Imax=1/1+IC50/[blocker]^h where I/Imax is the normalized current responses, IC50 defines the concentration at which inhibition is at its half-maximum, and h is the Hill coefficient.

Compound `N#Cc1c(C(F)(F)F)cc(O)n2c1nc1ccccc12` [1PBC] has an IC50 (0 mV, 2 µM Ca2+) of 4.87 µM, a remaining activity at 1 µM (0 mV) of 80.6% and a remaining activity at 1 µM (20 mV) of 76.4%. It also gave a remaining activity at 1 µM (40 mV) of 72.2%, a remaining activity at 1 µM (60 mV) of 68.1% and a remaining activity at 1 µM (80 mV) of 65.8%. The remaining activity at 1 µM (100 mV) was 66.4%, the remaining activity at 1 µM (120 mV) was 68.4% and the remaining activity at 1 µM (140 mV) was 72%. It also gave a remaining activity at 1 µM (-20 mV) of 84.8%, a remaining activity at 1 µM (-40 mV) of 89.1% and a remaining activity at 1 µM (-60 mV) of 92.3%. The remaining activity at 1 µM (-80 mV) was 93.4%, the remaining activity at 1 µM (-100 mV) was 95% and the remaining activity at 1 µM (-120 mV) was 95.3%. It also gave a remaining activity at 1 µM (-140 mV) of 96.6%, a remaining activity at 3 µM (0 mV) of 62.1% and a remaining activity at 3 µM (20 mV) of 56.5%. The remaining activity at 3 µM (40 mV) was 50.9%, the remaining activity at 3 µM (60 mV) was 46.8% and the remaining activity at 3 µM (80 mV) was 43.5%. The remaining activity at 3 µM (100 mV) was 42.4%, the remaining activity at 3 µM (120 mV) was 44.1% and the remaining activity at 3 µM (140 mV) was 49.1%. For the same compound, the remaining activity at 3 µM (-20 mV) was 67.7%, the remaining activity at 3 µM (-40 mV) was 73.3% and the remaining activity at 3 µM (-60 mV) was 77.2%. The remaining activity at 3 µM (-80 mV) was 82.9%, the remaining activity at 3 µM (-100 mV) was 86.4% and the remaining activity at 3 µM (-120 mV) was 88.8%. For the same compound, the remaining activity at 3 µM (-140 mV) was 90.8%, the remaining activity at 10 µM (0 mV) was 33.3% and the remaining activity at 10 µM (20 mV) was 28.2%. It also gave a remaining activity at 10 µM (40 mV) of 24.2%, a remaining activity at 10 µM (60 mV) of 21.4% and a remaining activity at 10 µM (80 mV) of 19.4%. The remaining activity at 10 µM (100 mV) was 17.8%, the remaining activity at 10 µM (120 mV) was 18.2% and the remaining activity at 10 µM (140 mV) was 20.6%. The remaining activity at 10 µM (-20 mV) was 38.5%, the remaining activity at 10 µM (-40 mV) was 44.6% and the remaining activity at 10 µM (-60 mV) was 50%. It also gave a remaining activity at 10 µM (-80 mV) of 54.7%, a remaining activity at 10 µM (-100 mV) of 59.2% and a remaining activity at 10 µM (-120 mV) of 64.2%. The remaining activity at 10 µM (-140 mV) was 67.7%, the remaining activity at 30 µM (0 mV) was 14.7% and the remaining activity at 30 µM (20 mV) was 12%. The remaining activity at 30 µM (40 mV) was 10.1%, the remaining activity at 30 µM (60 mV) was 9.12% and the remaining activity at 30 µM (80 mV) was 8.68%. For the same compound, the remaining activity at 30 µM (100 mV) was 8.48%, the remaining activity at 30 µM (120 mV) was 8.95% and the remaining activity at 30 µM (140 mV) was 10.1%. The remaining activity at 30 µM (-20 mV) was 17.4%, the remaining activity at 30 µM (-40 mV) was 20.4% and the remaining activity at 30 µM (-60 mV) was 25.6%. It also gave a remaining activity at 30 µM (-80 mV) of 29.2%, a remaining activity at 30 µM (-100 mV) of 33.1% and a remaining activity at 30 µM (-120 mV) of 36.2%. It also gave a remaining activity at 30 µM (-140 mV) of 39.2%, a remaining activity at 100 µM (0 mV) of 6.16% and a remaining activity at 100 µM (20 mV) of 4.78%. For the same compound, the remaining activity at 100 µM (40 mV) was 4.43%, the remaining activity at 100 µM (60 mV) was 4.02% and the remaining activity at 100 µM (80 mV) was 3.86%. For the same compound, the remaining activity at 100 µM (100 mV) was 3.89%, the remaining activity at 100 µM (120 mV) was 3.95% and the remaining activity at 100 µM (140 mV) was 4.21%. It also gave a remaining activity at 100 µM (-20 mV) of 7.53%, a remaining activity at 100 µM (-40 mV) of 8.84% and a remaining activity at 100 µM (-60 mV) of 10.3%. It also gave a remaining activity at 100 µM (-80 mV) of 12.6%, a remaining activity at 100 µM (-100 mV) of 14.7% and a remaining activity at 100 µM (-120 mV) of 17.1%. For the same compound, the remaining activity at 100 µM (-140 mV) was 19.8%, the IC50 (20 mV, 2 µM Ca2+) was 3.78 µM and the IC50 (40 mV, 2 µM Ca2+) was 3.01 µM. For the same compound, the IC50 (60 mV, 2 µM Ca2+) was 2.51 µM, the “log-fold IC50 (change of mutant vs WT)” value (80 mV) was 0.0426 and the IC50 (80 mV, 2 µM Ca2+) was 2.2 µM. For the same compound, the IC50 (100 mV, 2 µM Ca2+) was 2.14 µM, the IC50 (120 mV, 2 µM Ca2+) was 2.29 µM and the IC50 (140 mV, 2 µM Ca2+) was 2.76 µM. For the same compound, the IC50 (-20 mV, 2 µM Ca2+) was 6.24 µM, the IC50 (-40 mV, 2 µM Ca2+) was 8.08 µM and the IC50 (-60 mV, 2 µM Ca2+) was 10.3 µM. It also gave an IC50 (-80 mV, 2 µM Ca2+) of 12.8 µM, an IC50 (-100 mV, 2 µM Ca2+) of 15.5 µM and an IC50 (-120 mV, 2 µM Ca2+) of 18.4 µM. It also gave an IC50 (-140 mV, 2 µM Ca2+) of 21.4 µM, an IC50 (S517A, V 0 mV) of 4.87 µM and an IC50 (S517A, V 20 mV) of 3.78 µM. The IC50 (S517A, V 40 mV) was 3.01 µM, the IC50 (S517A, V 60 mV) was 2.51 µM and the IC50 (S517A, V 80 mV) was 2.2 µM. It also gave an IC50 (S517A, V 100 mV) of 2.14 µM, an IC50 (S517A, V 120 mV) of 2.29 µM and an IC50 (S517A, V 140 mV) of 2.76 µM. It also gave an IC50 (S517A, V -20 mV) of 6.24 µM, an IC50 (S517A, V -40 mV) of 8.08 µM and an IC50 (S517A, V -60 mV) of 10.3 µM. It also gave an IC50 (S517A, V -80 mV) of 12.8 µM, an IC50 (S517A, V -100 mV) of 15.5 µM and an IC50 (S517A, V -120 mV) of 18.4 µM. It also gave an IC50 (S517A, V -140 mV) of 21.4 µM.
